Assay results taken from patent US8592463B2, “Hedgehog pathway antagonists and therapeutic applications thereof” (Siena Biotech S.p.A., priority 2007, dated 2013).

What was measured:
Smo receptor = target: T1, Smo receptor (Homo sapiens, UniProt Q99835); assay: Saturation binding of Bodipy-Cyclopamine to stable Smo-FLAG transfected cell line clone 3-5
T1 construct: expressed in transfected cells; host or cells: FlpIN293 (HEK293-derived)
Method: (§1) The interaction of compounds with the Smo receptor was tested by a displacement binding assay using fluorescent ligand for the Smo receptor (Bodipy-Cyclopamine, Toronto Research Chemical Inc, cat#B674800) as the labeled ligand to be displaced.
(§2) In order to determine the Kd (concentration of the ligand where 50% of the maximal binding is reached) and the Bmax (maximal amount of ligand which can bind specifically to the receptor in a biological preparation) of the fluorescent ligand, the Specific Binding (SB) was calculated by subtraction Non Specific Binding (NSB) from Total Binding (TB). The TB was determined by adding increasing concentration of Bodipy-Cyclopamine to the cells, while the NSB was determined by adding a mixture of increasing concentration of Bodipy-Cyclopamine with a saturating concentration of an well described antagonist (in this case, N-[3-(1H-benzimidazol-2-yl)-4-chlorophenyl]-3,5-dimethoxy-benzamide (Rubin et al. WO2003011219) at 10 μM was selected) to the cells. For each concentration of Bodipy-Cyclopamine, the SB was calculated by subtracting the value of NSB from TB. From the SB curve Bmax and Kd were calculated. […] The Ki is the concentration of non labeled ligand which inhibits 50% of the specific binding (SB) of the labeled ligand, and corrected for the effective used concentration of the labeled ligand. […]

[1] = test system: 293FlpIN/clone E-3 mock transfected cells; assay: Saturation binding of Bodipy-Cyclopamine to stable mock transfected cell line clone E-3; parameters: species or system human
Method: as §1, §2

T1 sequence (Q99835 28-787): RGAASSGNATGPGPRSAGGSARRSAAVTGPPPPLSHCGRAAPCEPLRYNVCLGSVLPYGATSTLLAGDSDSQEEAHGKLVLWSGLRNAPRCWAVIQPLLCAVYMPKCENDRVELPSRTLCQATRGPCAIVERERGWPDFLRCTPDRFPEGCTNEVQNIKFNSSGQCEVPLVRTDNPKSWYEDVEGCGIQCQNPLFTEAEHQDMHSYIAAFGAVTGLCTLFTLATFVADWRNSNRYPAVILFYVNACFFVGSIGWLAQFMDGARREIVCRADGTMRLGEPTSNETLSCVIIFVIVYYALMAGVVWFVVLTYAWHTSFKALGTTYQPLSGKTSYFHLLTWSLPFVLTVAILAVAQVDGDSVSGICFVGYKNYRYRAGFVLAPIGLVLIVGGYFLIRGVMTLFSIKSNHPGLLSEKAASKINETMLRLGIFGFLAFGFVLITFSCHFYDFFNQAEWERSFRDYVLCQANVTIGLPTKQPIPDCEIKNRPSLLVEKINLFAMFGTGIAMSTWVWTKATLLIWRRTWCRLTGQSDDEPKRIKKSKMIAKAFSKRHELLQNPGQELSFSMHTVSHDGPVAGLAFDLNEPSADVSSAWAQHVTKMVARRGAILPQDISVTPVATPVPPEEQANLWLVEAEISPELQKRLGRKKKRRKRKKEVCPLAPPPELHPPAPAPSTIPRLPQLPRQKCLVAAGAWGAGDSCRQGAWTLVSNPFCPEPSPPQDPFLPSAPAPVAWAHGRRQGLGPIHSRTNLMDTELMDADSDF

In the case of Bodipy-Cyclopamine, the Kd (Smo receptor) is reported as 0.0443 µM and the Kd [1] is reported as 0.115 µM.
